{
  "source": "patent US10653779B2",
  "about": "“Formulations with reduced oxidation” (Genentech, Inc., priority 2013, dated 2020)",
  "key": {"mAb1 [1]": {"test_system": "mAb1", "test": "mAb1 light stress, eight hours, with L-Trp and L-Met; Fab/Fc oxidation by papain digest RP-HPLC", "format": "physicochemical, human", "conditions": "5 mg/mL mAb1, 8 h light at 250 W/m^2, L-Trp at 1 mM", "procedure": "L-tryptophan (L-Trp), an antioxidant used in protein formulations, has been recently shown to be photosensitive (Igarashi et al., Anal Sci 23(8):943-8 (2007)) and to have the ability to produce H2O2 upon light exposure. […] Control vials were wrapped in aluminum foil and treated similarly. After light exposure, solutions were prepared for analysis by reverse-phase HPLC. […] Following incubation, 900 μL of the solution was combined with 100 μL of 1 M dithiothreitol (DTT) and incubated for another thirty minutes at 37° C. Samples were then run on an Agilent, Inc. 1100/1200 HPLC system (Santa Clara, Calif.) equipped with UV detection at 280 nm in conjunction with a Varian, Inc. Pursuit 3 μm, 2 mm ID×250 mm diphenyl column (Palo Alto, Calif.). Mobile Phase A was 0.1% TFA in water. Mobile Phase B was 0.1% TFA in acetonitrile. The mobile phase gradient increased linearly from 34% B at 0 minutes to 43% B at 50.0 minutes, then to 95% B at 50.1 minutes. The gradient remained at 95% B until 60.1 minutes, and then decreased linearly from 95% B to 34% B between 60.1 and 60.2 minutes. The gradient remained at 34% B until the end of the cycle at 80.2 minutes. The column temperature was 65° C., total flow rate was 0.2 mL/min, and injection volume of each sample was 6 μL. Chromatograms were then integrated for quantification of oxidation."}, "mAb1 [2]": {"test_system": "mAb1", "test": "mAb1 light stress study, 16 hours; Fab/Fc oxidation by RP-HPLC", "format": "physicochemical, human", "conditions": "16 hours of light at 250 W/m^2", "procedure": "The fragments were reduced with DTT, and then separated and identified via Liquid Chromatography-Mass Spectrometry (LC-MS). […] Comparison of area integrated under the oxidized and native peaks was used to quantify HC Fab and Fc oxidation. […] By using the papain digest RP-HPLC method in the present study it was possible to investigate Trp residue oxidation by quantifying HC Fab oxidation, and Met residue oxidation by quantifying HC Fc oxidation.\nAntioxidants were added at 1 mM. Glass vials containing these formulations were exposed to 250 W/m^2 light in an Atlas SunTest CPS+ Xenon Test Instrument (Chicago, Ill.). Control vials were wrapped in aluminum foil and treated similarly. After light exposure, solutions were prepared for analysis by reverse-phase HPLC as described above."}},
  "data": [
    {"smiles": "N[C@@H](Cc1c[nH]c2ccccc12)C(=O)O", "note": "[L-Trp, L-Tryptophan]", "values": [
      {"measurement": "Fc oxidation of mAb1", "setting": "mAb1 [1]", "result": "over 20%"},
      {"measurement": "Fab oxidation of mAb1", "setting": "mAb1 [1]; label mAb1 = No Excipient", "result": "~9", "unit": "%"},
      {"measurement": "Fc oxidation relative to the control level", "setting": "mAb1 [2]; 1 mM L-Trp", "result": 7, "unit": "times"},
      {"measurement": "Fab oxidation increase over the control level (mAb1 Ref Mat)", "setting": "mAb1 [2]; excipient 1 mM, label mAb1 = No Excipient", "result": "over 11 fold"}
    ]}
  ]
}
